In ChEMBL document CHEMBL1201862, “PubChem BioAssay data set” (2004):
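Cells were grown in 96-well plates and exposed to each compound for 48 hours at five concentrations; endpoints were interpolated linearly between bracketing concentrations, or set to the highest concentration if not reached. At the GI50, growth is halved.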 The source made the active and inactive calls. Rule as the data show it: active = GI50 up to about 1.1 µM and inactive = higher.

Columns and labels:
Assay in all cases: NCI tumour cell line growth inhibition, 48 h
[1] = test system: SW-620
[2] = test system: OVCAR-4
[3] = test system: UACC-257
[4] = test system: OVCAR-5
[5] = test system: EKVX
[6] = test system: M14
[7] = test system: MOLT-4
[8] = test system: HCC 2998
[9] = test system: RPMI-8226
[10] = test system: SK-OV-3
[11] = test system: HT-29
[12] = test system: COLO 205
[13] = test system: HCT-15
[14] = test system: NCI-H460
[15] = test system: SK-MEL-2
[16] = test system: LOX IMVI
[17] = test system: NCI/ADR-RES
[18] = test system: CCRF-CEM
[19] = test system: SNB-19
[20] = test system: 786-0

SMILES	GI50 [1]	GI50 [2]	GI50 [3]	GI50 [4]	GI50 [5]	GI50 [6]	GI50 [7]	GI50 [8]	GI50 [9]	GI50 [10]	GI50 [11]	GI50 [12]	GI50 [13] [µM]	GI50 [14]	GI50 [15]	GI50 [16]	GI50 [17]	GI50 [18]	GI50 [19]	GI50 [20]
CN(C)c1ccc(/C=N/n2c(-c3ccccc3)nc3ccccc3c2=O)cc1	> 100 µM (inactive)	47.9 µM (inactive)	> 100 µM (inactive)	> 100 µM (inactive)	> 100 µM (inactive)	79.6 µM (inactive)	34.4 µM (inactive)	> 100 µM (inactive)	20.4 µM (inactive)	80.5 µM (inactive)	40 µM (inactive)	48.5 µM (inactive)	27.5	35.4 µM (inactive)	82.2 µM (inactive)	80.2 µM (inactive)	21.8 µM (inactive)	46.8 µM (inactive)	40.8 µM (inactive)	> 100 µM (inactive)
O=C(O)CCCCCNC(=O)CCC(CN(CC(=O)OCc1ccccc1)CC(=O)OCc1ccccc1)N(CC(=O)OCc1ccccc1)CC(=O)OCc1ccccc1 (stereo not given)	22.1 µM (inactive)	16.9 µM (inactive)	18.8 µM (inactive)	18.2 µM (inactive)	22 µM (inactive)	17.5 µM (inactive)	15.2 µM (inactive)	15.2 µM (inactive)	10.3 µM (inactive)	13.3 µM (inactive)	17.9 µM (inactive)	16.7 µM (inactive)	17.9	30.4 µM (inactive)	16 µM (inactive)	19.2 µM (inactive)	20.3 µM (inactive)	16 µM (inactive)	17.9 µM (inactive)	18 µM (inactive)
OC1CCCC1C(O)(C(F)(F)F)C(F)(F)F (stereo not given)	> 100 µM (inactive)	> 100 µM (inactive)	> 100 µM (inactive)	> 100 µM (inactive)	> 100 µM (inactive)	> 100 µM (inactive)	> 100 µM (inactive)	> 100 µM (inactive)	> 100 µM (inactive)	> 100 µM (inactive)	> 100 µM (inactive)	> 100 µM (inactive)	> 100	> 100 µM (inactive)	> 100 µM (inactive)	> 100 µM (inactive)	> 100 µM (inactive)	> 100 µM (inactive)	> 100 µM (inactive)	> 100 µM (inactive)
O=C1/C(=C\c2cccc(Oc3ccccc3)c2)S(=O)(=O)C(c2ccccc2)N1c1ccc(Cl)cc1 (stereo not given)	16.7 µM (inactive)	13.1 µM (inactive)	24 µM (inactive)	11.7 µM (inactive)	23 µM (inactive)	14 µM (inactive)	4.59 µM (inactive)	56.1 µM (inactive)	12.3 µM (inactive)	32.2 µM (inactive)	14.3 µM (inactive)	14.3 µM (inactive)	13.7	14.2 µM (inactive)	8.36 µM (inactive)	10.4 µM (inactive)	17.3 µM (inactive)	12.3 µM (inactive)	25.1 µM (inactive)	14 µM (inactive)
Cc1c2ccc3ccccc3c2c[n+]2ccccc12	4.2 µM (inactive)	12 µM (inactive)	7.62 µM (inactive)	61.9 µM (inactive)	4.91 µM (inactive)	15.8 µM (inactive)	4.66 µM (inactive)	4.92 µM (inactive)	19.5 µM (inactive)	16.9 µM (inactive)	27.5 µM (inactive)	2.82 µM (inactive)	59.2	10.7 µM (inactive)	11.6 µM (inactive)	42.9 µM (inactive)	55.2 µM (inactive)	6.59 µM (inactive)	2.64 µM (inactive)	2.37 µM (inactive)
O=C(CCN1CC2CCC(CC2)C1)c1cccs1	2.79 µM (inactive)	30.8 µM (inactive)	16.1 µM (inactive)	16.4 µM (inactive)	19.1 µM (inactive)	16.4 µM (inactive)	3.32 µM (inactive)	15.6 µM (inactive)	1.85 µM (inactive)	> 37.8 µM (inactive)	24.5 µM (inactive)	18.5 µM (inactive)	20.4	18.7 µM (inactive)	17.3 µM (inactive)	10.7 µM (inactive)	24.6 µM (inactive)	1.94 µM (inactive)	> 53 µM (inactive)	5.35 µM (inactive)
Cc1ccc([N+](=O)[O-])cc1S(=O)(=O)Nc1ccc(C2=NOC(c3ccco3)C2)cc1 (stereo not given)	18.7 µM (inactive)	14.9 µM (inactive)	17.6 µM (inactive)	22.9 µM (inactive)	24.2 µM (inactive)	15.3 µM (inactive)	15.1 µM (inactive)	17.2 µM (inactive)	18.9 µM (inactive)	28 µM (inactive)	22.8 µM (inactive)	20.1 µM (inactive)	10.4	18.5 µM (inactive)	16 µM (inactive)	17.3 µM (inactive)	14.5 µM (inactive)	18 µM (inactive)	18.7 µM (inactive)	18.2 µM (inactive)
OCCCCCNc1c2ccccc2nc2ccccc12	2.55 µM (inactive)	2.31 µM (inactive)	2.02 µM (inactive)	2.51 µM (inactive)	3.4 µM (inactive)	2.74 µM (inactive)	2.4 µM (inactive)	1.01 µM (active)	3.44 µM (inactive)	3.05 µM (inactive)	1.44 µM (inactive)	1.53 µM (inactive)	3.57	1.01 µM (active)	2.62 µM (inactive)	1.89 µM (inactive)	7.46 µM (inactive)	2.5 µM (inactive)	3.03 µM (inactive)	2.34 µM (inactive)
CCCCCCCCCCCCCCCCC1=CC(=O)C=C(OC)C1=O	> 100 µM (inactive)	> 100 µM (inactive)	> 100 µM (inactive)	> 100 µM (inactive)	> 100 µM (inactive)	> 100 µM (inactive)	> 100 µM (inactive)	> 100 µM (inactive)	91.2 µM (inactive)	> 100 µM (inactive)	> 100 µM (inactive)	55.6 µM (inactive)	66.8	34.4 µM (inactive)	> 100 µM (inactive)	65.3 µM (inactive)	95.5 µM (inactive)	29.4 µM (inactive)	56.4 µM (inactive)	47.2 µM (inactive)
CC(=O)OC(CCC1(C)OC1COc1ccc(CCNC(=O)C=C(C)C)cc1)C(C)(C)OC(C)=O (stereo not given)	> 100 µM (inactive)	23.7 µM (inactive)	0.449 µM (active)	> 100 µM (inactive)	16.9 µM (inactive)	16.3 µM (inactive)	8.93 µM (inactive)	> 100 µM (inactive)	13.1 µM (inactive)	> 100 µM (inactive)	46 µM (inactive)	28.2 µM (inactive)	24.9	25.6 µM (inactive)	> 51.9 µM (inactive)	5.85 µM (inactive)	10.6 µM (inactive)	> 40.6 µM (inactive)	> 100 µM (inactive)	> 100 µM (inactive)
CC(=O)Nc1c2sscc-2n(C)c1=O [THIOLUTIN]	0.664 µM (active)	1.56 µM (inactive)	1.57 µM (inactive)	1.6 µM (inactive)	1.87 µM (inactive)	0.314 µM (active)	0.152 µM (active)	0.587 µM (active)	0.575 µM (active)	1.2 µM (inactive)	0.272 µM (active)	0.596 µM (active)	1.32	0.537 µM (active)	1.88 µM (inactive)	1.86 µM (inactive)	1.16 µM (inactive)	0.282 µM (active)	1.96 µM (inactive)	1.52 µM (inactive)
